Key:
[1] = system: caspase-8; experiment: Caspase-8 activation assay; assay type: cell-based, human; conditions: PC-3 cell line
Description: For more details, see Supplementary Materials. […]
the positive wells exceeds the limits of the instrument. The O.D. values at 450 nm can only be read after the Stop Solution has been added to each well. If using a reader that […]
100 μl of Stop Solution to each well. Tap side of plate gently to mix. The solution in the wells should change from blue to yellow. Read the absorbance of each well at 450 nm having blanked the plate reader against a chromogen blank composed of 100 μl each of Stabilized Chromogen and Stop Solution. Read the plate within 2 hours after adding the Stop Solution. Use a curve fitting software to generate the standard curve. A four- […]
Read the concentrations for unknown samples and controls from the standard curve. Multiply value(s) obtained for sample(s) by the appropriate dilution factor to correct for the dilution in step 3. Samples […]
Diluent Buffer and reanalyzed.
4.2.4. Caspase-8 activation assay
Cells were obtained from American Type Culture Collection, cells were grown in RPMI […]
tested for caspase8, and lysed with Cell Extraction Buffer. This lysate was diluted in […]
caspase-8 content. (Cells are Plated in a density of 1.2 – 1.8 × 10,000 cells/well in a volume of 100µl complete growth medium + 100 ul of the tested compound per well in a 96-well plate for 24 hours before the enzyme assay for Tubulin.). The absorbance of each microwell was read on a spectro-photometer at 450 nm. A standard curve is prepared from 7human Caspase-8 standard dilutions and human Caspase-8 concentration determined.

[2] = system: Bax; experiment: Bax activation assay; assay type: cell-based, human; conditions: PC-3 cell line
Description: For more details, see Supplementary Materials.
4.2.5. Bax activation assay
Bring all reagents, except the human Bax-α Standard, to room temperature for at least 30 minutes prior to opening. The human Bax -α Standard solution should not be left at room temperature for more than 10 minutes. All standards, controls and samples should be run in duplicate. Refer to the Assay Layout Sheet to determine the number of wells to be used and put any remaining wells with the desiccant back into the pouch and seal the ziploc. Store unused wells at 4 °C. Pipet 100 μL of Assay Buffer into the S0 ( 0 pg/mL standard) wells. Pipet 100 μL of Standards #1 through #6 into the appropriate wells. Pipet 100 μL of the Samples into the appropriate wells. Tap the plate gently to mix the contents. Seal the plate and incubate at room temperature on a plate shaker for 1 hour at ~500 rpm. Empty the contents of the wells and wash by adding 400 μL of wash solution to every well. Repeat the wash 4 more times for a total of 5 washes. After the final wash, empty or aspirate the wells and firmly tap the plate on a lint fr ee paper towel to remove any remaining wash buffer. Pipet 100 μL of yellow Antibody into each well, except the Blank. Seal the plate and incubate at room temperature on a plate shaker for 1 hour at ~500 rpm. Empty the contents of the wells and wash by addi ng 400 μL of […]
the final wash, empty or aspirate the wells and firmly tap the plate on a lint free paper towel to remove any remaining wash buffer. Add 100 μL of blue Co njugate to each well, except the Blank. Seal the plate and incubate at room temperature on a plate shaker for 30 minutes at ~500 rpm. Empty the contents of the wells and wash by adding 400 μL of wash solution to every well. Repeat the wash 4 more times for a total of 5 washes .
After the final wash, empty or aspirate the wells and firmly tap the plate on a lint free paper towel to remove any remaining wash buffer. Pipet 100 μL of Substrate Solution into each well. Incubate for 30 minutes at room temperature on a plate shaker at ~500 rpm. Pipet 100 μL Stop Solution to each well. Blank the plate reader against the Blank wells, read the optical density at 450 nm. Calculate the average net Optical Density (OD) bound for each standard and sample by subtracting the average Blank OD from the average OD for each standard and sample. Using linear graph paper, plot the Average Net OD for each standard versus Bax concentration in each standard.
Approximate a straight line through the points. The concentration of Bax in the unknowns can be determined by interpolation. […]

O=C(NN=Cc1ccc([N+](=O)[O-])cc1)c1ccc2[nH]c(-c3ccc(Cl)cc3)nc2c1 [Compound 4c, N′-(4-Nitrobenzylidene)-2-(4-chlorophenyl)-1H-benzimidazole-5-carbohydrazide]
Caspase-8 Conc [1]: 1.90 ng/mL
caspase-8 increase compared to untreated control cell [1]: 16 times
caspase-8 level [1]: 1.90 ng/mL
Bax Conc [2]: 185 pg/mL
Bax increase compared to untreated PC-3 cancer cells [2]: 26 fold
Bax level [2]: 185 pg/mL

O=C(NN=Cc1ccc(Cl)cc1)c1ccc2[nH]c(-c3ccc(Cl)cc3)nc2c1 [Compound 4e, N′-(4-Chlorobenzylidene)-2-(4-chlorophenyl)-1H-benzimidazole-5-carbohydrazide]
Caspase-8 Conc [1]: 2.20 ng/mL
caspase-8 increase compared to untreated control cell [1]: 18 times
caspase-8 level [1]: 2.20 ng/mL
Caspase-8 Fold Change ([1]; vs control): 18
Bax Conc [2]: 220 pg/mL
Bax increase compared to untreated PC-3 cancer cells [2]: 31 fold
Bax level [2]: 220 pg/mL
Bax Fold Change ([2]; vs control): 31

— paper PMC10819888, “Benzimidazole-Based Derivatives as Apoptotic Antiproliferative Agents: Design, Synthesis, Docking, and Mechanistic Studies” (Molecules, 2024)
